Results on 62 molecules are retold here after patent US4145444A, “Anti-inflammatory agent of benzoyl derivative” (priority 1977, dated 1979).

Like-named read-outs stand apart in the source and are kept apart here.

Broadly, the inhibition is the relative decrease from the control value, in per cent.

The test system of one assay is platelet. The assay can be described thus: Blood platelet aggregation inhibiting effect (collagen-induced). The assay is classed as cell-based, rabbits. As to conditions: 10^-4 mole, collagen inducer, rabbit PRP; for inhibition at 100 µM: Oryctolagus cuniculus, Platelet, read-out: Blood platelet agg. inh.: percentage inhibition of platelet aggregation. From the text: Male rabbits (Japan original white strain 3.3 to 3.6 kg) were anesthetized with Thiopental sodium and blood was sampled from the carotid artery.

The next assay relates to male mice. The assay can be described thus: Analgesic effect: painful stretchings following intraperitoneal 0.7% acetic acid. As to conditions: Mus musculus, po, read-out: Analgesic: percentage diminition of times of painful stretching.
A further assay has as its system hind paws of male rats. The assay can be described thus: Anti-inflammatory effect: acute carragheenin edema method. The assay is classed as in vivo. As to conditions: for inhibition in vivo at 100 mg/kg: Rattus norvegicus, read-out: Anti-inf.: edema inhibition rate; for anti-inflammatory effect, inhibition rate (ED50), in words: rat, in vivo. On the procedure: The edema was induced by subcutaneous injection of 1% carragheenin suspension in saline to the hind paws of male rats weighting 150 to 180 g. Each sample was orally given at the dosage of 100 mg/kg just before the inoculation of carragheenin.

In a further assay the test system is thrombus. Nature of the assay: Inhibiting effect on thrombosis (by-pass between left juglar vein and right carotid artery, silk thread). The class given is in vivo, SD type male rates. As to conditions: Rattus norvegicus; 100 mg/kg oral, 5 hours before first blood circulation, rats; read-out: Thrombosis inh.: thrombosis inhibition rate. On the procedure:
The inhibiting effects of the samples of the invention on thrombosis were tested by the following test method.
A 0.5 ml of 50 μ/ml of the heparin physiological saline was added through the polyethylene tube before the first blood circulation. After the blood circulation for 15 minutes, the circulation was stopped in the middle of the tubing at artery side with a pinch cock.
Then, 0.2 ml of the heparin physiological saline was added to remove the blood coagulates on the tubing wall and another new polyethylene tubing filled with the heparin solution and containing a piece of new silk thread was attached between the venous and artery tubing ends.
The blood circulation was reestablished by opening the pinch cock. After 15 minutes, the wet weight of thrombus on the silk thread was similarly measured.
In the same manner, the third circulation was performed and wet weight of thrombus measured.
The amount of thrombus was given by the equation A. [formula] Each sample was suspended in an aqueous solution of sodium carboxymethyl cellulose and the oral dose of the suspension (100 mg/kg) was performed at 5 hours before the first blood circulation.
The amount of thrombus after the oral dose of the sample was calculated in the same manner as that of control circulations.
The thrombosis inhibition rate was given by the equation B. [formula]

The mark [1] stands for this setting: 100 mg/kg oral, carragheenin edema, male rats (Table 2).
The mark [2] stands for this setting: 100 mg/kg oral, carragheenin edema, male rats (Table 2').

Experimental for male mice: Each sample was orally administered in the dosage of 100 mg/kg before injection of acetic acid.

With `CCCc1ccc(C(=O)Cc2ccccc2)cc1` [compound 49], in the assay on platelet, the inhibition at 100 µM turned out to be 28.5%. The results for the inhibition in vivo at 100 mg/kg in the assay on male mice, in the assay on hind paws of male rats (setting [1]) and in the assay with thrombus were 18.2%, 10.7% and 13.4%, respectively. `CCc1ccc(C(=O)c2ccc(OC)cc2)cc1` [compound 107]: in the assay with platelet, the inhibition at 100 µM is 20.3%. Also, the inhibition in vivo at 100 mg/kg is 13.2% in the assay with male mice, 20.3% in the assay on hind paws of male rats (po) and 19.6% in the assay on thrombus.

As to `CCCc1ccc(C(=O)c2cccc(Cl)c2)cc1` [compound 139], in the assay with hind paws of male rats (setting [2]), the inhibition in vivo at 100 mg/kg stood at 11.7%. Consider `CC(C)(C)c1ccc(C(=O)c2ccccc2F)cc1` [compound 120], for which the inhibition in vivo at 100 mg/kg in the assay with hind paws of male rats (setting [2]) worked out at 38.3%. As for `CC(C)c1ccc(C(=O)c2ccccc2)cc1` [compound 21], in the assay with platelet, the inhibition at 100 µM came to 8.6%. In addition, the inhibition in vivo at 100 mg/kg amounted to 16.1% in the assay on male mice, 37.3% with hind paws of male rats (setting [1]) and 5.4% with thrombus. As to `CCCCCCCc1ccc(C(=O)c2ccc(C)cc2)cc1` [compound 85], in the assay on platelet, the inhibition at 100 µM turned out to be 18.7%. Moreover, the values for the inhibition in vivo at 100 mg/kg in the assay on male mice, in the assay on hind paws of male rats (po) and in the assay with thrombus were 10.2%, 18.7% and 16.2%, respectively. In the case of `CCCCCc1ccc(C(=O)c2cccc(F)c2)cc1` [compound 124], the inhibition in vivo at 100 mg/kg with hind paws of male rats (setting [2]) stood at 23.5%. Consider `CCCCc1ccc(C(=O)c2ccc(OC)cc2)cc1` [compound 18], for which, in the assay on platelet, the inhibition at 100 µM came out at 9.3%. The inhibition in vivo at 100 mg/kg in the assay on male mice worked out at 20.1%; with hind paws of male rats (setting [1]), 41.6%; with thrombus, 24.2%. On to `CCCCc1ccc(C(=O)c2ccc(F)cc2)cc1` [compound 127], for which the inhibition in vivo at 100 mg/kg in the assay with hind paws of male rats (setting [2]) was 58.8%. Take `Cc1ccc(C(=O)c2ccccc2)cc1C` [compound 72]: the inhibition at 100 µM with platelet stood at 28.7%. For the same molecule, the figures for the inhibition in vivo at 100 mg/kg with male mice, in the assay on hind paws of male rats (setting [1]) and with thrombus were 23.4%, 29.9% and 30.2%, respectively. Consider `CCCCOc1ccc(C(=O)c2ccc(Cl)cc2)cc1` [compound 137], for which, in the assay with hind paws of male rats (setting [2]), the inhibition in vivo at 100 mg/kg stood at 16.7%. Turning to `CCC(C)(C)c1ccc(C(=O)c2ccccc2F)cc1` [compound 122], the inhibition in vivo at 100 mg/kg with hind paws of male rats (setting [2]) worked out at 39.3%.

Consider `Cc1cc(C)c(C(=O)c2ccccc2)c(C)c1` [compound 30], for which, in the assay with platelet, the “Blood platelet agg. inh.: percentage inhibition of platelet aggregation” value stood at 8.7%. For `Cc1cc(C)c(C(=O)c2cccc(I)c2)c(C)c1` [compound 163], the inhibition in vivo at 100 mg/kg in the assay with hind paws of male rats (setting [2]) is 16.4%. In the case of `CCCCCCc1ccc(C(=O)c2ccc(C)cc2C)cc1` [Active ingredient No. 4], the “Blood platelet agg. inh.: percentage inhibition of platelet aggregation” value with platelet is 20.5%.

As for `CCCc1ccc(C(=O)c2ccc(Br)cc2)cc1` [compound 150], in the assay with hind paws of male rats (setting [2]), the inhibition in vivo at 100 mg/kg came to 14%. The same measure, in the same setting: for `CCCCCCCCc1ccc(C(=O)c2cccc(Cl)c2)cc1` [compound 141] the value was 13.8%. On the same count and under the same terms, for `Cc1ccc(C(=O)c2cccc(I)c2)c(C)c1` [compound 162] the value was 13%; for `CC(C)Cc1ccc(C(=O)c2ccccc2F)cc1` [compound 118], 32.7%; for `Cc1ccc(C(=O)c2ccccc2Br)c(C)c1` [compound 146], 23.1%. As for `Cc1ccc(C(=O)c2cccc(F)c2)c(C)c1` [compound 126], the inhibition in vivo at 100 mg/kg in the assay with hind paws of male rats (setting [2]) was found to be 27.7%. Consider `COc1ccc(C(=O)c2ccccc2F)cc1` [compound 116], for which the inhibition in vivo at 100 mg/kg in the assay with hind paws of male rats (setting [2]) is 59.8%.

On to `CCCCCCCCc1ccc(C(=O)c2cccc(Br)c2)cc1` [compound 148], for which the inhibition in vivo at 100 mg/kg in the assay with hind paws of male rats (setting [2]) was 36.3%.

For `CCCCc1ccc(C(=O)c2ccccc2Br)cc1` [compound 143], the inhibition in vivo at 100 mg/kg in the assay with hind paws of male rats (setting [2]) amounted to 45.4%. On to `CCC(C)c1ccc(C(=O)c2ccccc2F)cc1` (centres unmarked) [compound 119], for which the inhibition in vivo at 100 mg/kg with hind paws of male rats (setting [2]) was 60.7%. Take `CCCCc1ccc(C(=O)c2cccc(I)c2)cc1` [compound 160]: the inhibition in vivo at 100 mg/kg with hind paws of male rats (setting [2]) came to 10.8%. In the case of `Cc1ccc(C(=O)c2ccc(I)cc2)c(C)c1` [compound 165], the inhibition in vivo at 100 mg/kg with hind paws of male rats (setting [2]) amounted to 19.2%. On to `Cc1cc(C)c(C(=O)c2cccc(F)c2)c(C)c1` [compound 125], for which, in the assay on hind paws of male rats (setting [2]), the inhibition in vivo at 100 mg/kg stood at 18.1%. As for `CCCCc1ccc(C(=O)c2cccc(F)c2)cc1` [compound 123], the inhibition in vivo at 100 mg/kg with hind paws of male rats (setting [2]) amounted to 38.3%. For the molecule `CCCCCc1ccc(C(=O)c2ccccc2F)cc1` [Active ingredient No. 9, 2-Fluoro-4'-n-amyl-benzophenone], in the assay with hind paws of male rats, the “anti-inflammatory effect, inhibition rate (ED50), in words” value is “especially high inhibition rate (ED50)”. `O=C(c1ccccc1)c1ccc(C2CCCCC2)cc1` [compound 73]: the “Blood platelet agg. inh.: percentage inhibition of platelet aggregation” value in the assay with platelet is 20.3%. As for `CCCCCc1ccc(C(=O)c2ccccc2Cl)cc1` [compound 133], in the assay with hind paws of male rats (setting [2]), the inhibition in vivo at 100 mg/kg was 38.3%. Same read-out and setting: for `Cc1ccc(C(=O)c2ccccc2Cl)c(C)c1` [compound 135] the value was 37.2%. Same read-out and setting: for `CCCCCc1ccc(C(=O)c2cccc(Cl)c2)cc1` [compound 140] the value was 14.9%; for `CCCc1ccc(C(=O)c2ccccc2Cl)cc1` [compound 132], 14.9%. Take `COc1ccc(C(=O)c2ccc(Cl)cc2)cc1` [compound 136]: the inhibition in vivo at 100 mg/kg with hind paws of male rats (setting [2]) stood at 13.2%. Consider `CCCCCCCCc1ccc(C(=O)c2ccccc2I)cc1` [compound 157], for which the inhibition in vivo at 100 mg/kg with hind paws of male rats (setting [2]) turned out to be 37.4%. Same read-out and setting: for `Cc1ccc(C(=O)c2ccc(Br)cc2)c(C)c1` [compound 152] the value was 22.6%.

Consider `Cc1ccc(C(=O)c2cccc(Br)c2)c(C)c1` [compound 149], for which the inhibition in vivo at 100 mg/kg in the assay on hind paws of male rats (setting [2]) worked out at 42.2%.

Take `CCCCCc1ccc(C(=O)c2ccc(F)cc2)cc1` [compound 128]: the inhibition in vivo at 100 mg/kg with hind paws of male rats (setting [2]) was found to be 33.6%. Consider `CCCCCCCCc1ccc(C(=O)c2ccc(Br)cc2)cc1` [compound 151], for which the inhibition in vivo at 100 mg/kg in the assay on hind paws of male rats (setting [2]) was 15.3%. On the same count and under the same terms, for `CCCCCCCCc1ccc(C(=O)c2ccccc2Br)cc1` [compound 145] the value was 60.2%; for `Cc1cc(C)c(C(=O)c2ccc(Br)cc2)c(C)c1` [compound 153], 27.8%. In the case of `CCCCCCCCc1ccc(C(=O)c2ccc(F)cc2)cc1` [compound 129], the inhibition in vivo at 100 mg/kg with hind paws of male rats (setting [2]) turned out to be 38.6%. With `CC(C)c1ccc(C(=O)c2ccccc2F)cc1` [compound 117], in the assay with hind paws of male rats (setting [2]), the inhibition in vivo at 100 mg/kg came to 53.3%. For `CCCCCc1ccc(C(=O)c2ccccc2I)cc1` [compound 156], the inhibition in vivo at 100 mg/kg with hind paws of male rats (setting [2]) was 43%. Consider `Cc1ccc(C(=O)c2ccc(F)cc2)c(C)c1` [compound 130], for which, in the assay with hind paws of male rats (setting [2]), the inhibition in vivo at 100 mg/kg turned out to be 37.8%. The same measure, in the same setting: for `Cc1cc(C)c(C(=O)c2ccccc2Br)c(C)c1` [compound 147] the value was 20.4%. The same measure, in the same setting: for `CCCCc1ccc(C(=O)c2ccccc2I)cc1` [compound 155] the value was 31.8%. On to `CCCc1ccc(C(=O)c2ccccc2Br)cc1` [compound 142], for which the inhibition in vivo at 100 mg/kg with hind paws of male rats (setting [2]) is 38.9%. `Cc1ccc(C(=O)c2ccccc2I)c(C)c1` [compound 158]: in the assay with hind paws of male rats (setting [2]), the inhibition in vivo at 100 mg/kg was 32.7%. As for `CCCc1ccc(C(=O)c2ccccc2I)cc1` [compound 154], the inhibition in vivo at 100 mg/kg in the assay with hind paws of male rats (setting [2]) was 29%.

As for `CCCCCCOc1ccc(C(=O)c2ccc(Cl)cc2)cc1` [compound 138], the inhibition in vivo at 100 mg/kg with hind paws of male rats (setting [2]) was determined as 12.5%. Same read-out and setting: for `Cc1cc(C)c(C(=O)c2ccc(I)cc2)c(C)c1` [compound 166] the value was 21.5%; for `CCCCCc1ccc(C(=O)c2ccccc2Br)cc1` [compound 144], 50%. With `O=C(c1ccccc1)c1ccccc1F` [Active ingredient No. 15, 2-fluorobenzophenone], the “anti-inflammatory effect, inhibition rate (ED50), in words” value in the assay with hind paws of male rats is given as “especially high inhibition rate (ED50)”.

On to `CCCCCCCCc1ccc(C(=O)c2ccc(I)cc2)cc1` [compound 164], for which the inhibition in vivo at 100 mg/kg with hind paws of male rats (setting [2]) was found to be 29%.

With `CCCCCCCCc1ccc(C(=O)c2cccc(I)c2)cc1` [compound 161], the inhibition in vivo at 100 mg/kg with hind paws of male rats (po) amounted to 20.9%.

Consider `Cc1cc(C)c(C(=O)c2ccccc2I)c(C)c1` [compound 159], for which the inhibition in vivo at 100 mg/kg in the assay on hind paws of male rats (setting [2]) was found to be 15.9%. `Cc1cc(C)c(C(=O)c2ccccc2F)c(C)c1` [Active ingredient No. 11, 2-Fluoro-2',4',6'-trimethyl-benzophenone]: in the assay with hind paws of male rats, the “anti-inflammatory effect, inhibition rate (ED50), in words” value is given as “especially high inhibition rate (ED50)”. Take `Cc1cc(C)c(C(=O)c2ccc(F)cc2)c(C)c1` [compound 131]: the inhibition in vivo at 100 mg/kg in the assay on hind paws of male rats (setting [2]) is 33.6%. On the same count and under the same terms, for `CCCCCCCCc1ccc(C(=O)c2ccccc2Cl)cc1` [compound 134] the value was 35.1%.
